Source: ChEMBL document CHEMBL4665751, “Discovery of Clinical Candidate (5-(3-(4-Chlorophenoxy)prop-1-yn-1-yl)-3-hydroxypicolinoyl)glycine, an Orally Bioavailable Prolyl Hydroxylase Inhibitor for the Treatment of Anemia” (J Med Chem, 2020)

Columns and labels:
[1] = Hepatotoxicity in male Sprague-Dawley rat assessed as change in albumin/globulin ratio at 15 to 200 mg/kg, po administered every alternate days for 2 weeks measured on day 14; type: toxicity, organism-based; conditions: in vivo, 336 h, dose 15-200 mg/kg, time 14 day
[2] = Nephrotoxicity in Sprague-Dawley rat assessed as change in urea level in blood at 15 to 200 mg/kg, po administered every alternate days for 2 weeks measured on day 14; type: toxicity, organism-based; conditions: in vivo, 336 h, dose 15-200 mg/kg, time 14 day
[3] = Half-life in mouse hepatocytes at 100 uM incubated up to 120 mins by LC-MS/MS analysis; type: ADME, cell-based, Hepatocyte
[4] = Nephrotoxicity in male Sprague-Dawley rat assessed as effect on total protein level in blood at 15 to 200 mg/kg, iv or po administered every alternate days for 2 weeks measured on day 14; type: toxicity, organism-based; conditions: in vivo, 336 h, dose 15-200 mg/kg, time 14 day
[5] = Half-life in monkey liver microsome at 1 uM preincubated for 5 mins followed by NADPH addition measured up to 120 mins by LC-MS/MS analysis; type: ADME, Macaca mulatta; conditions: rhesus monkey, liver microsomes, time <=125 min
Cytochrome P450 1A2 = molecular target: T1, Cytochrome P450 1A2 (Homo sapiens, UniProt P05177); experiment: Inhibition of CYP1A2 (unknown origin) using phenacetin as substrate preincubated for 5 mins followed by addition of NADPH measured after 20 mins by LC-MS/MS analysis; type: ADME
T1 sequence (P05177 whole entry): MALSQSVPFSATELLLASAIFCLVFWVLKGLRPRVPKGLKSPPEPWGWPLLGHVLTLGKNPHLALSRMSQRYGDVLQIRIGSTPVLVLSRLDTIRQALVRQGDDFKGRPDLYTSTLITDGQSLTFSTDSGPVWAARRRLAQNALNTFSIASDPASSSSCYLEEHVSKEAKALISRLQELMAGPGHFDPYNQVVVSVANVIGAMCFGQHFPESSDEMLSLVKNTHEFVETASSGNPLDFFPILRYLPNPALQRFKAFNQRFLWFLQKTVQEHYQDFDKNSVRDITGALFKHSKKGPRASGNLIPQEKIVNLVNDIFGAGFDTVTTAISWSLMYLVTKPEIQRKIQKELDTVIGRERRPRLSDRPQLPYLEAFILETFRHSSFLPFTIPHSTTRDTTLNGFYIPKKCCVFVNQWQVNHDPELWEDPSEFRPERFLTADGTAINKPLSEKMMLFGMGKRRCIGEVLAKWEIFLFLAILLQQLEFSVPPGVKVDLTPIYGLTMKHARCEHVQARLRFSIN

[6] = Acute toxicity in Sprague-Dawley rat assessed as change in ratio of thymus to body weight at 15 to 200 mg/kg, po administered every alternate days for 2 weeks measured on day 14; type: organism-based; conditions: in vivo, 336 h, dose 15-200 mg/kg, time 14 day
[7] = Half-life in Beagle dog at 2 mg/kg, ig by LC-MS/MS analysis; type: ADME, organism-based, Canis lupus familiaris; conditions: in vivo, po
[8] = Intrinsic clearance in monkey liver microsome at 1 uM preincubated for 5 mins followed by NADPH addition measured up to 120 mins by LC-MS/MS analysis; type: ADME, Macaca mulatta; conditions: rhesus monkey, microsomes, 2 h, time <=125 min
Homo sapiens [9] = species: Homo sapiens; experiment: Selectivity index, ratio of IC50 for KDM6B (unknown origin) in presence of peptide substrate incubated for 30 mins by alpha screen assay to IC50 for PHD2 (unknown origin) by O-phenyl enediamine(OPD) based fluorescence assay
HUVEC = experiment: Cytotoxicity against human HUVEC cells assessed as reduction in cell viability at 10 to 100 uM incubated for 72 hrs by MTT assay; type: cell-based; conditions: dose 10-100 µM
Egl nine homolog 1 = Egl nine homolog 1 (Homo sapiens, UniProt Q9GZT9); experiment: Inhibition of FITC-HIF1alpha (556 to 574 residues) binding to PHD2 (181 to 426 residues) (unknown origin) by fluorescence polarization assay
[10] = Acute toxicity in Sprague-Dawley rat assessed as change in body weight at 15 to 200 mg/kg, po administered every alternate days for 14 days; type: organism-based; conditions: in vivo, 336 h, dose 15-200 mg/kg, time 14 day
Homo sapiens [11] = species: Homo sapiens; experiment: Selectivity index, ratio of IC50 for KDM4A (unknown origin) in presence of peptide substrate incubated for 30 mins by alpha screen assay to IC50 for PHD2 (unknown origin) by O-phenyl enediamine(OPD) based fluorescence assay
[12] = MRT (0 to infinity) in Beagle dog at 0.5 mg/kg, iv by LC-MS/MS analysis; type: ADME, organism-based, Canis lupus familiaris; conditions: in vivo
Mus musculus = experiment: Antianemic activity in cisplatin-induced C57BL/6 mouse anemia model assessed as improvement in anemia at 10 mg/kg, po administered every other day for 1 month; type: functional; conditions: time 1 months, 730 h
[13] = Half-life in dog liver microsome at 1 uM preincubated for 5 mins followed by NADPH addition measured up to 120 mins by LC-MS/MS analysis; type: ADME, Canis lupus familiaris; conditions: liver microsomes, time <=125 min
[14] = Acute toxicity in Sprague-Dawley rat assessed as change in ratio of kidney to body weight at 15 to 200 mg/kg, po administered every alternate days for 2 weeks measured on day 14; type: organism-based; conditions: in vivo, 336 h, dose 15-200 mg/kg, time 14 day
[15] = Tmax in Beagle dog at 2 mg/kg, ig by LC-MS/MS analysis; type: ADME, organism-based, Canis lupus familiaris; conditions: in vivo, po
[16] = Acute toxicity in Sprague-Dawley rat assessed as effect on food intake at 15 to 200 mg/kg, po administered every alternate day for 14 day; type: organism-based; conditions: in vivo, 336 h, dose 15-200 mg/kg
[17] = AUC (0 to t) in Beagle dog at 0.5 mg/kg, iv by LC-MS/MS analysis; type: ADME, organism-based, Canis lupus familiaris; parameters: dose 0.5 mg/kg; conditions: in vivo
[18] = Acute toxicity in male Sprague-Dawley rat assessed as change in ratio of epididymis to body weight at 15 to 200 mg/kg, po administered every alternate days for 2 weeks measured on day 14; type: organism-based; conditions: in vivo, 336 h, dose 15-200 mg/kg, time 14 day
Hep 3B2 = experiment: Cytotoxicity against human Hep3B cells assessed as reduction in cell viability at 10 to 100 uM incubated for 72 hrs by MTT assay; type: cell-based; conditions: hep 3b2, 72 h, dose 10-100 µM

Egl nine homolog 1, sequence (Q9GZT9 whole entry, the tested form may be a part): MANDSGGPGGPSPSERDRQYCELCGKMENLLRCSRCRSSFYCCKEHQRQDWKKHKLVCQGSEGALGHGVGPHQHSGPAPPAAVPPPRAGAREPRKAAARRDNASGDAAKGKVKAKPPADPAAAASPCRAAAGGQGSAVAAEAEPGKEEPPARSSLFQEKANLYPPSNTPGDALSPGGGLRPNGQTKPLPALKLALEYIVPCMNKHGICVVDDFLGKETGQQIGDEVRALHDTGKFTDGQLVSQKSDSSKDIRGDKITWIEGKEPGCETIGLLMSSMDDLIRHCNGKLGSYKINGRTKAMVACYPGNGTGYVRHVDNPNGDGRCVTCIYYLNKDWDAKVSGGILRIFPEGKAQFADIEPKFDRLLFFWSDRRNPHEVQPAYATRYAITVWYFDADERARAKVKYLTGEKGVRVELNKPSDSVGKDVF

O=C(O)CNC(=O)c1ncc(C#CCOc2ccc(Cl)cc2)cc1O [DDO-3055]
Activity [1]: Non-Toxic | Activity [2]: Non-Toxic | half-life at 100 µM [3]: 8.68 min | Activity [4]: Non-Toxic | half-life at 1 µM [5]: > 1.65 h | IC50 (Cytochrome P450 1A2): > 30000 nM | Activity [6]: Non-Toxic | half-life [7]: 4.19 h | CLH [8]: < 18.7 mL/day/kg | Ratio IC50 (Homo sapiens [9]): > 156 | Activity (HUVEC): Non-Toxic | IC50 (Egl nine homolog 1): 64.2 nM | Activity [10]: Non-Toxic | Ratio IC50 (Homo sapiens [11]): 1560 | MRT inf [12]: 2.27 h | Activity (Mus musculus): 83.3% | half-life at 1 µM [13]: > 2.32 h | Activity [14]: Non-Toxic | Tmax [15]: 0.67 h | Activity [16]: Non-Toxic | AUC(0-t) [17]: 611 ng·h/mL | Activity [18]: Non-Toxic | Activity (Hep 3B2): Non-Toxic
